Reference: patent US10532991B2 (TAIPEI MEDICAL UNIVERSITY, priority 2018, dated 2020)

What was measured:
[1] = Human liver microsome stability; format: in vitro ADME; conditions: human liver microsomes, 1 μM test compound, 37° C.; CLint = k/P
[2] = in vivo; cited from earlier work

Structure (SMILES) | CLint (intrinsic clearance) [1] | area under the curve (AUC) [2] | t1/2 [2]
C[C@]12CC[C@H]3[C@@H](CCC4=CC(=O)CC[C@@]43C)[C@@H]1CC[C@@H]2O [Testosterone, testosterone, reference compound] | 0.0727 mL/min/mg Protein | – | –
[2H]C([2H])([2H])Oc1cc2c(cc1OC([2H])([2H])[2H])C1CC(=O)C(CC(C)C)CN1CC2 (centres unmarked) [deutetrabenazine] | – | 542 ng·h/mg | 8.6 h
COc1cc2c(cc1OC)C1CC(=O)C(CC(C)C)CN1CC2 (centres unmarked) [tetrabenazine] | – | 261 ng·h/mg | 4.8 h
